Measurements taken from paper PMC6718736, “Validation of in vitro methods for human cytochrome P450 enzyme induction: Outcome of a multi-laboratory study” (Toxicology in Vitro, 2019).
Entries after “also recorded” stand apart in the source; their conditions may differ. Like-named read-outs stand apart in the source and are kept apart here.

Legend:
[1] = tested on: CYP1A2; test: CYP1A2 enzyme induction assay in cryopreserved HepaRG cells (phenacetin probe, LC/MS); type: in vitro ADME, human; conditions: for Assigned classification CYP1A2: HepaRG; for Assigned classification CYP1A2: key: 1=Positive=inducer; 0=Negative=non-inducer
[2] = tested on: CYP2B6; test: CYP2B6 enzyme induction assay in cryopreserved HepaRG cells (bupropion probe, LC/MS); type: in vitro ADME, human; conditions: for Prediction in vivo inducer: Cmax/F2 >0.5 criterion; for Assigned classification CYP2B6: HepaRG; for Assigned classification CYP2B6: key: 1=Positive=inducer; 0=Negative=non-inducer
[3] = tested on: CYP3A4; test: CYP3A4 enzyme induction assay in cryopreserved HepaRG cells (midazolam probe, LC/MS); type: in vitro ADME, human; conditions: for Assigned classification CYP3A4: HepaRG; for Assigned classification CYP3A4: key: 1=Positive=inducer; 0=Negative=non-inducer
[4] = tested on: CYP1A2; test: CYP1A2 enzyme induction assay in cryopreserved primary human hepatocytes (PHH); type: in vitro ADME; conditions: for Prediction in vivo inducer: Cmax/F2 >0.5 criterion; for Assigned classification CYP1A2: PHH;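 for Assigned classification CYP1A2: code 1 means positive inducer and 0 means non-inducer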
[5] = tested on: CYP2B6; test: CYP2B6 enzyme induction assay in cryopreserved primary human hepatocytes (PHH); type: in vitro ADME; conditions: for Assigned classification CYP2B6: PHH;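 for Assigned classification CYP2B6: code 1 means positive inducer and 0 means non-inducer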
[6] = tested on: CYP1A2; conditions: cited from earlier work
[7] = cited from earlier work
[8] = tested on: CYP; conditions: CYP isoforms induced; ref Abadie et al. (2009), Richert et al. (2010), Preissner et al. (2010), Hoffmann et al. (2014); cited from earlier work
[9] = tested on: CYP2B6; conditions: cited from earlier work
[10] = tested on: CYP3A4; conditions: cited from earlier work
[11] = tested on: CYP3A4; test: CYP3A4 enzyme induction assay in cryopreserved primary human hepatocytes (PHH); conditions: for Assigned classification CYP3A4: PHH
[12] = human in vivo, CYP named without remark = induced, ref references in the cell, Washington University database, Hoffmann et al. (2014), Pelkonen et al. (2008), Hukkanen et al. (2012)

## NC(=O)N1c2ccccc2C=Cc2ccccc21 [Carbamazepine]
[1]; CYP1A2, HepaRG cells, Cmax/F2 >0.5 criterion
  Prediction in vivo inducer: Yes
[1]; CYP1A2, HepaRG cells, in vitro concentration producing 2-fold induction
  F2: 56.4 µM
[1]; CYP1A2, HepaRG cells, positive in one batch in each of the three laboratories
  Induction in vitro: Yes
[1]; Lab 1, batch 20
  Assigned classification CYP1A2: 1
[1]; Lab 1, batch 35
  Assigned classification CYP1A2: 1
[1]; Lab 1, batch 36
  Assigned classification CYP1A2: 1
[1]; Lab 2, batch 20
  Assigned classification CYP1A2: 1
[1]; Lab 2, batch 35
  Assigned classification CYP1A2: 1
[1]; Lab 2, batch 36
  Assigned classification CYP1A2: 1
[1]; Lab 3, batch 20
  Assigned classification CYP1A2: 0
[1]; Lab 3, batch 35
  Assigned classification CYP1A2: 1
[1]; Lab 3, batch 36
  Assigned classification CYP1A2: 1
[2]; CYP2B6, HepaRG cells
  Prediction in vivo inducer: Yes
[2]; CYP2B6, HepaRG cells, listed as carbamazepine
  Prediction in vivo inducer: correctly classified
[2]; CYP2B6, HepaRG cells, in vitro concentration producing 2-fold induction
  F2: 18.8 µM
[2]; CYP2B6, HepaRG cells, positive in one batch in each of the three laboratories
  Induction in vitro: Yes
[2]; Lab 1, batch 20
  Assigned classification CYP2B6: 1
[2]; Lab 1, batch 35
  Assigned classification CYP2B6: 1
[2]; Lab 1, batch 36
  Assigned classification CYP2B6: 1
[2]; Lab 2, batch 20
  Assigned classification CYP2B6: 1
[2]; Lab 2, batch 35
  Assigned classification CYP2B6: 1
[2]; Lab 2, batch 36
  Assigned classification CYP2B6: 1
[2]; Lab 3, batch 20
  Assigned classification CYP2B6: 1
[2]; Lab 3, batch 35
  Assigned classification CYP2B6: 1
[2]; Lab 3, batch 36
  Assigned classification CYP2B6: 1
[3]; CYP3A4, HepaRG cells
  F2: 18.8 µM
  Induction in vitro: Yes
  Prediction in vivo inducer: Yes
[3]; Lab 1, batch 20
  Assigned classification CYP3A4: 1
[3]; Lab 1, batch 35
  Assigned classification CYP3A4: 1
[3]; Lab 1, batch 36
  Assigned classification CYP3A4: 0
[3]; Lab 2, batch 20
  Assigned classification CYP3A4: 1
[3]; Lab 2, batch 35
  Assigned classification CYP3A4: 1
[3]; Lab 2, batch 36
  Assigned classification CYP3A4: 1
[3]; Lab 3, batch 20
  Assigned classification CYP3A4: 1
[3]; Lab 3, batch 35
  Assigned classification CYP3A4: 1
[3]; Lab 3, batch 36
  Assigned classification CYP3A4: 1
[4]; CYP1A2, PHH
  Prediction in vivo inducer: No
[4]; CYP1A2, PHH, listed as carbamazepine
  Prediction in vivo inducer: non-inducer; also recorded: missed the in vivo prediction
[4]; CYP1A2, PHH, positive in one donor in each of the three laboratories
  Induction in vitro: No
[4]; Lab 1, batch 0 6 A
  Assigned classification CYP1A2: 0
[4]; Lab 1, batch 4 0 8
  Assigned classification CYP1A2: 1
[4]; Lab 1, batch 8 0 8
  Assigned classification CYP1A2: 0
[4]; Lab 2, batch 0 6 A
  Assigned classification CYP1A2: 0
[4]; Lab 2, batch 4 0 8
  Assigned classification CYP1A2: 0
[4]; Lab 2, batch 8 0 8
  Assigned classification CYP1A2: 0
[4]; Lab 3, batch 0 6 A
  Assigned classification CYP1A2: 1
[4]; Lab 3, batch 4 0 8
  Assigned classification CYP1A2: 0
[4]; Lab 3, batch 8 0 8
  Assigned classification CYP1A2: 0
[5]; CYP2B6, PHH
  F2: 2.09 to 6.27 µM
  Induction in vitro: Yes
  Prediction in vivo inducer: Yes
[5]; CYP2B6, PHH, Cmax/F2 >0.5 criterion
  Prediction in vivo inducer: positive
[5]; Lab 1, batch 0 6 A
  Assigned classification CYP2B6: 1
[5]; Lab 1, batch 4 0 8
  Assigned classification CYP2B6: 1
[5]; Lab 1, batch 8 0 8
  Assigned classification CYP2B6: 0
[5]; Lab 2, batch 0 6 A
  Assigned classification CYP2B6: 1
[5]; Lab 2, batch 4 0 8
  Assigned classification CYP2B6: 1
[5]; Lab 2, batch 8 0 8
  Assigned classification CYP2B6: 0
[5]; Lab 3, batch 0 6 A
  Assigned classification CYP2B6: 1
[5]; Lab 3, batch 4 0 8
  Assigned classification CYP2B6: 1
[5]; Lab 3, batch 8 0 8
  Assigned classification CYP2B6: 0
[6]; CYP1A2, human, ref Table 1
  Induction in vivo: Yes
[6]; [12]
  CYP induction in vivo literature reference: CYP1A2: CYP 1A2
[7]; human in vivo plasma concentration, normal dose
  Cmax: 39 µM
[7]; human in vivo, normal dose (Table 10)
  Cmax: 39 µM
[8]
  CYP induction in vitro (human hepatocytes): CYP1A2, CYP2B6, CYP3A4
[9]; CYP2B6, human in vivo reference classification
  Induction in vivo: Yes
[9]; CYP2B6, human, ref Table 1
  Induction in vivo: Yes
[9]; [12]
  CYP induction in vivo literature reference: CYP2B6: CYP2B6
[10]; CYP3A4, human in vivo reference classification (Table 11)
  Induction in vivo: Yes
[10]; [12]
  CYP induction in vivo literature reference: CYP3A4: CYP 3A4
[11]; CYP3A4, PHH
  Induction in vitro: Yes
  Prediction in vivo inducer: Yes
[11]; Lab 1, batch 0 6 A
  Assigned classification CYP3A4: 1
[11]; Lab 1, batch 4 0 8
  Assigned classification CYP3A4: 1
[11]; Lab 1, batch 8 0 8
  Assigned classification CYP3A4: 1
[11]; Lab 2, batch 0 6 A
  Assigned classification CYP3A4: 1
[11]; Lab 2, batch 4 0 8
  Assigned classification CYP3A4: 1
[11]; Lab 2, batch 8 0 8
  Assigned classification CYP3A4: 1
[11]; Lab 3, batch 0 6 A
  Assigned classification CYP3A4: 1
[11]; Lab 3, batch 4 0 8
  Assigned classification CYP3A4: 1
[11]; Lab 3, batch 8 0 8
  Assigned classification CYP3A4: 1
